Source: patent US20250333406A1, “SULFONYL CYCLIC DERIVATIVES, AND COMPOSITIONS AND METHODS THEREOF” (Lysoway Therapeutics, Inc., priority 2023, published 2025)

Tested on: TFEB
Assay: TFEB Nuclear Translocation Assay
Format: cell-based
Conditions: read-out: EC50 of TFEB activation

`CC(C)S(=O)(=O)c1ccc(S(=O)(=O)n2nc(N3CCN(c4ncc(F)cn4)CC34CC4)c3c(F)cccc32)cc1` [Compound 16, 4-fluoro-3-(7-(5-fluoropyrimidin-2-yl)-4,7-diazaspiro [2.5]octan-4-yl)-1-((4-(isopropylsulfonyl)phenyl)sulfonyl)-1H-indazole] was tested, and the EC50 was ≤ 1000 nM.
For `CC(C)S(=O)(=O)n1ccc(S(=O)(=O)n2nc(N3CCN(c4ccc(F)cc4)CC34CC4)c3c(Cl)cc(F)cc32)c1` [Compound 175, 4-chloro-6-fluoro-3-(7-(4-fluorophenyl)-4,7-diazaspiro [2.5]octan-4-yl)-1-((1-(isopropylsulfonyl)-1H-pyrrol-3-yl)sulfonyl)-1H-indazole], the EC50 was ≤ 1000 nM.
For `CC(C)S(=O)(=O)c1ccc(S(=O)(=O)n2nc(N3CC=C(Cl)C[C@H]3C(F)(F)F)c3c(Cl)cccc32)cc1` (single isomer, unassigned) [Compound 83], the EC50 was ≤ 1000 nM.
`CC(C)S(=O)(=O)c1ccc(S(=O)(=O)n2nc(N3CCN(C(=O)C(F)(F)F)CC34CC4)c3c(Cl)cccc32)cc1` [Compound 55, 1-[4-[4-chloro-1-(4-isopropylsulfonylphenyl)sulfonyl-indazol-3-yl]-4,7-diazaspiro [2.5]octan-7-yl]-2,2,2-trifluoro-ethanone] was tested, and the EC50 was ≤ 1000 nM.
In the case of `CC(C)S(=O)(=O)c1ccc(S(=O)(=O)n2nc(N3CCC(OC(F)F)CC34CC4)c3c(Cl)cccc32)cc1` (stereo not shown) [Compound 87, 4-chloro-3-[7-(difluoromethoxy)-4-azaspiro [2.5]octan-4-yl]-1-(4-isopropylsulfonylphenyl) sulfonyl-indazole], the EC50 is reported as ≤ 1000 nM.
For `CC(C)S(=O)(=O)c1ccc(S(=O)(=O)n2nc(N3CCC(=O)CC3C(F)(F)F)c3c(Cl)cccc32)cc1` (stereo not shown) [Compound 84, 1-[4-chloro-1-(4-isopropylsulfonylphenyl)sulfonyl-indazol-3-yl]-2-(trifluoromethyl)piperidin-4-one], the EC50 was ≤ 1000 nM.
In the case of `CC(C)S(=O)(=O)c1ccc(S(=O)(=O)n2nc(N3CCN(c4ncc(F)cn4)CC34CC4)c3c(Cl)cccc32)cc1F` [Compound 62, 4-chloro-1-(3-fluoro-4-isopropylsulfonyl-phenyl) sulfonyl-3-[7-(5-fluoropyrimidin-2-yl)-4,7-diazaspiro [2.5]octan-4-yl]indazole], the EC50 is reported as ≤ 1000 nM.
`CC(C)S(=O)(=O)n1ccc(S(=O)(=O)n2nc(N3CCN(c4ncc(F)cn4)CC34CC4)c3c(Cl)cc(F)cc32)c1` [Compound 155, 4-chloro-6-fluoro-3-(7-(5-fluoropyrimidin-2-yl)-4,7-diazaspiro [2.5]octan-4-yl)-1-((1-(isopropylsulfonyl)-1H-pyrrol-3-yl)sulfonyl)-1H-indazole] was tested, and the EC50 was ≤ 1000 nM.
For `CC(C)S(=O)(=O)n1ccc(S(=O)(=O)n2nc(N3CCN(c4ncc(F)cn4)CC34CC4)c3c(F)ccc(F)c32)c1` [Compound 149, 4,7-difluoro-3-(7-(5-fluoropyrimidin-2-yl)-4,7-diazaspiro [2.5]octan-4-yl)-1-((1-(isopropylsulfonyl)-1H-pyrrol-3-yl)sulfonyl)-1H-indazole], the EC50 was ≤ 1000 nM.
`CC(C)S(=O)(=O)c1ccc(S(=O)(=O)n2nc(N3CCC(Cl)=C[C@@H]3C(F)(F)F)c3c(Cl)cccc32)cc1` [Compound 80, 4-chloro-3-[(6R)-4-chloro-6-(trifluoromethyl)-3,6-dihydro-2H-pyridin-1-yl]-1-(4-isopropylsulfonylphenyl)sulfonyl-indazole] was tested, and the EC50 was ≤ 1000 nM.
With `CC(C)S(=O)(=O)n1ccc(S(=O)(=O)n2nc(N3CCCC4(CC4)C3)c3c(Cl)cccc32)c1` [Compound 139, 3-(5-azaspiro [2.5]octan-5-yl)-4-chloro-1-(1-isopropylsulfonylpyrrol-3-yl) sulfonyl-indazole] the EC50 was ≤ 1000 nM.
With `CC(C)S(=O)(=O)c1ccc(S(=O)(=O)n2nc(N3CCN(c4ccc(F)cn4)CC34CC4)c3c(F)cccc32)cc1` [Compound 25, 4-fluoro-3-[7-(5-fluoro-2-pyridyl)-4,7-diazaspiro [2.5]octan-4-yl]-1-(4-isopropylsulfonylphenyl) sulfonyl-indazole] the EC50 was ≤ 1000 nM.
`CC(C)S(=O)(=O)c1ccc(S(=O)(=O)n2nc(N3CCN(CC(F)(F)F)CC34CC4)c3c(Cl)cccc32)s1` [Compound 6, 4-chloro-1-[(5-isopropylsulfonyl-2-thienyl)sulfonyl]-3-[7-(2,2,2-trifluoroethyl)-4,7-diazaspiro [2.5]octan-4-yl]indazole] was tested, and the EC50 was ≤ 1000 nM.
In the case of `CC(C)S(=O)(=O)n1ccc(S(=O)(=O)n2nc(N3CCC(=O)CC34CC4)c3c(Cl)cc(F)cc32)c1` [Compound 187, 4-[4-chloro-6-fluoro-1-(1-isopropylsulfonylpyrrol-3-yl)sulfonyl-indazol-3-yl]-4-azaspiro [2.5]octan-7-one], the EC50 is reported as ≤ 1000 nM.
Work on `CC(C)S(=O)(=O)c1nc(S(=O)(=O)n2nc(N3CCN(c4ncc(F)cc4F)CC34CC4)c3c(Cl)cc(F)cc32)cs1` [Compound 197, 4-[4-chloro-3-[7-(3,5-difluoro-2-pyridyl)-4,7-diazaspiro [2.5]octan-4-yl]-6-fluoro-indazol-1-yl]sulfonyl-2-isopropylsulfonyl-thiazole] yielded an EC50 of 1000 to 10000 nM.
`CC(C)S(=O)(=O)c1ccc(S(=O)(=O)n2nc(N3CCN(c4ccc(F)cn4)CC34CC4)c3c(Cl)cc(F)cc32)s1` [Compound 41, 4-chloro-6-fluoro-3-[7-(5-fluoro-2-pyridyl)-4,7-diazaspiro [2.5]octan-4-yl]-1-[(5-isopropylsulfonyl-2-thienyl)sulfonyl]indazole] was tested, and the EC50 was ≤ 1000 nM.
For `CC(C)S(=O)(=O)n1ccc(S(=O)(=O)n2nc(N3CCN(c4nc(Cl)ns4)CC34CC4)c3c(Cl)cc(F)cc32)c1` [Compound 156, 3-chloro-5-[4-[4-chloro-6-fluoro-1-(1-isopropylsulfonylpyrrol-3-yl)sulfonyl-indazol-3-yl]-4,7-diazaspiro [2.5]octan-7-yl]-1,2,4-thiadiazole], the EC50 was ≤ 1000 nM.
With `O=S(=O)(n1nc(N2CCN(c3ncc(F)cn3)CC23CC3)c2c(Cl)cccc21)C12CC(C(F)(F)F)(C1)C2` [Compound 131, 4-chloro-3-[7-(5-fluoropyrimidin-2-yl)-4,7-diazaspiro [2.5]octan-4-yl]-1-[[3-(trifluoromethyl)-1-bicyclo [1.1.1]pentanyl]sulfonyl]indazole] the EC50 was ≥ 10000 nM.
With `CC(C)S(=O)(=O)c1ccc(S(=O)(=O)n2nc(N3CC=C(Cl)C[C@@H]3C(F)(F)F)c3c(Cl)cccc32)cc1` [Compound 82, 4-chloro-3-[(2R)-4-chloro-2-(trifluoromethyl)-3,6-dihydro-2H-pyridin-1-yl]-1-(4-isopropylsulfonylphenyl)sulfonyl-indazole] the EC50 was ≤ 1000 nM.
With `O=S(=O)(c1ccc(C(F)(F)CF)cc1)n1nc(N2CCN(c3ncc(F)cn3)CC23CC3)c2c(Cl)cccc21` [Compound 98, 4-chloro-3-[7-(5-fluoropyrimidin-2-yl)-4,7-diazaspiro [2.5]octan-4-yl]-1-[4-(1,1,2-trifluoroethyl)phenyl]sulfonyl-indazole] the EC50 was ≤ 1000 nM.
`CC(C)S(=O)(=O)c1ccc(S(=O)(=O)n2nc(N3CCC[C@H]3C(F)(F)F)c3c(Cl)cccc32)cc1` (single isomer, unassigned) [Compound 110] was tested, and the EC50 was ≤ 1000 nM.
In the case of `CC(C)S(=O)(=O)c1ccc(S(=O)(=O)n2nc(N3CCC(=O)CC34CC4)c3c(Cl)cccc32)s1` [Compound 8, 4-[4-chloro-1-[(5-isopropylsulfonyl-2-thienyl)sulfonyl]indazol-3-yl]-4-azaspiro [2.5]octan-7-one], the EC50 is reported as ≤ 1000 nM.
In the case of `CC(C)S(=O)(=O)n1ccc(S(=O)(=O)n2nc(N3CCN(c4ncc(Cl)cc4F)CC34CC4)c3c(F)ccc(F)c32)c1` [Compound 148, 3-[7-(5-chloro-3-fluoro-2-pyridyl)-4,7-diazaspiro [2.5]octan-4-yl]-4,7-difluoro-1-(1-isopropylsulfonylpyrrol-3-yl) sulfonyl-indazole], the EC50 is reported as ≤ 1000 nM.
In the case of `CC(C)S(=O)(=O)c1ccc(S(=O)(=O)n2nc(N3CCN(S(=O)(=O)C(F)(F)F)CC34CC4)c3c(Cl)cccc32)s1` [Compound 14, 4-chloro-1-[(5-isopropylsulfonyl-2-thienyl)sulfonyl]-3-[7-(trifluoromethylsulfonyl)-4,7-diazaspiro [2.5]octan-4-yl]indazole], the EC50 is reported as ≤ 1000 nM.
In the case of `CC(C)S(=O)(=O)n1ccc(S(=O)(=O)n2nc(N3CCN(c4ccccn4)CC34CC4)c3c(Cl)cc(F)cc32)c1` [Compound 163, 4-chloro-6-fluoro-1-(1-isopropylsulfonylpyrrol-3-yl)sulfonyl-3-[7-(2-pyridyl)-4,7-diazaspiro[2.5]octan-4-yl]indazole], the EC50 is reported as ≤ 1000 nM.
With `CC(F)(F)c1cnc(-n2nc(N3CCN(c4ncc(F)cn4)CC34CC4)c3c(Cl)cccc32)nc1` [Compound 136, 4-chloro-1-[5-(1,1-difluoroethyl)pyrimidin-2-yl]-3-[7-(5-fluoropyrimidin-2-yl)-4,7-diazaspiro [2.5]octan-4-yl]indazole] the EC50 was ≥ 10000 nM.
With `CC(C)S(=O)(=O)c1ccc(S(=O)(=O)n2nc(N3CCN(c4ncc(F)cn4)C[C@H]3C3CC3)c3c(Cl)cccc32)cc1` (single isomer, unassigned) [Compound 61] the EC50 was ≤ 1000 nM.
In the case of `CC(C)S(=O)(=O)c1ccc(S(=O)(=O)n2nc(N3CCN(c4ccc(Cl)cn4)CC34CC4)c3c(Cl)cccc32)s1` [Compound 47, 4-chloro-3-[7-(5-chloro-2-pyridyl)-4,7-diazaspiro[2.5]octan-4-yl]-1-[(5-isopropylsulfonyl-2-thienyl)sulfonyl]indazole], the EC50 is reported as ≤ 1000 nM.
`CC(C)S(=O)(=O)n1ccc(S(=O)(=O)n2nc(N3CCC34CCC4)c3c(Cl)cc(F)cc32)c1` [Compound 189, 3-(1-azaspiro [3.3]heptan-1-yl)-4-chloro-6-fluoro-1-(1-isopropylsulfonylpyrrol-3-yl) sulfonyl-indazole] was tested, and the EC50 was ≤ 1000 nM.
With `CC(F)(F)c1ccc(S(=O)(=O)n2nc(N3CCN(c4ncc(F)cn4)CC34CC4)c3c(O)cccc32)cc1` [Compound 134, 1-[4-(1,1-difluoroethyl)phenyl]sulfonyl-3-[7-(5-fluoropyrimidin-2-yl)-4,7-diazaspiro [2.5]octan-4-yl]indazol-4-ol] the EC50 was ≥ 10000 nM.
With `O=S(=O)(c1ccc(SC(F)(F)F)cc1)n1nc(N2CCN(c3ncc(F)cn3)CC23CC3)c2c(Cl)cccc21` [Compound 118, 4-chloro-3-[7-(5-fluoropyrimidin-2-yl)-4,7-diazaspiro[2.5]octan-4-yl]-1-[4-(trifluoromethylsulfanyl)phenyl]sulfonyl-indazole] the EC50 was ≤ 1000 nM.
